Results on 1 molecule are retold here after patent US10975352B2, “Methods of enhancing cell survival of stem cells” (The Scripps Research Institute, priority 2008, dated 2021).

The test system of assay [1] is E-cadherins, EGFR1 and ERB2. The assay is described as follows: Immunoprecipitation of E-cadherins with EGFR1 and Erb2. Format: cell-based, human. The text has this:
Interplay between physical/structural environment and growth factor plays a very important role in cell fate regulation (Comoglio, P. M., Boccaccio, C., & Trusolino, L., Curr Opin Cell Biol 15 (5):565-571 (2003)). To examine whether growth factors are involved in integrin-mediated hESC survival, we treated dissociated hESCs with Tzv or Ptn together with individual highly specific growth factor receptor inhibitors. […] Similarly inhibition of FGFR, IGFR, EGFR1 or Erb2 also greatly abolished Tzv-induced hESC survival in suspension culture.
ALP detection kit and integrin antibodies were from Chemicon. AG825 (Erb2 inhibitor), AG1478 (EGFR inhibitor), PPP (IGFR1 inhibitor) were purchased from Calbiochem. Antibodies raised against the intracytoplasmic tail of E-cadherins (Transduction Laboratories, Lexington, Ky.) were used for immunoprecipitation. The antibody TS2/16 was from Pierce. Antibodies to the extracellular domain of E-cadherin molecule were from Zymed (Carlsbad). Antibodies against extracellular signal-regulated kinase/MAPK, EGFR1, ERB2, GADPH and phosphorylated form of AKT were from Cell Signaling. Mouse monoclonal anti-phosphotyrosine (4G-10 clone) was from Upstate Biotechnology. Ptn and Tzv were added to culture medium at 2 μM.

The test system of assay [2] is primary human pancreatic islets/beta cells. The assay is described as follows: Cell death of dispersed primary human pancreatic islets/beta cells. Format: cell-based. Conditions: plate coated with matrigel or laminin; 1-2 mM in media. The procedure:
For example, the inventors dispersed primary human pancreatic islets/beta cells plated as single cells onto a tissue culture plate that was coated with matrigel or laminin. […] Accordingly, in some embodiments, a compound of the present invention is administered to an individual in need of pancreatic beta and/or islet cells, wherein administration of the compound results in an increase in the number of beta or islet cells in the individual.

Assay [3] relates to epithelial to mesenchymal transition/EMT. The assay is described as follows: Induction of MET / inhibition of EMT. Type of assay: cell-based.
The subject of another assay is hESCs. The assay is described as follows: Cell death analysis of dissociated hESCs in suspension culture. Format: cell-based, human. An excerpt: hESCs are known to be difficult in forming embryoid bodies (EBs) in suspension culture after single cell dissociation due to extensive cell death. Thus, we also tested whether Tzv or Ptn could promote survival of dissociated hESCs in suspension. […] Because cell aggregation is most often mediated through cell-cell adhesions and E-cadherin is the primary cell-cell adhesion molecule, as well as highly expressed in hESCs (Eastham, A. M. et al., Cancer Res 67 (23): 11254-11262 (2007)), we tested the effect of a specific E-cadherin blocking antibody on multicellular aggregate formation.
The hESCs under different treatments were dissociated by trypsin and fixed by 4% paraformaldehyde. And the staining was carried out according to the manufacturer's instructions (MBL Laboratories, Watertown, Mass.). After staining, samples were analysed by flow cytometry using a FACS Calibur flow cytometer (BD).

Consider `O=C(NCc1ccccc1)c1csc(Nc2ccncn2)n1` [Tzv, N-benzyl-2-(pyrimidin-4-ylamino)thiazole-4-carboxamide], for which the “binding of E-cadherins to EGFR1 and ERB2” value in assay [1] was “induced binding of E-cadherins to EGFR1 and ERB2”. Besides, the “cell death of single primary beta cells” value in assay [2] was “cell death was inhibited”. Besides, the “MET induction and EMT inhibition” value in assay [3] is “can induce MET (the reverse of EMT) and inhibit EMT”. The “survival of dissociated hESCs in suspension culture” value in the assay with hESCs was “greatly improved survival”.
